In data set [1] the test system is Acinetobacter baumannii. Nature of the data set: Antimicrobial activity against Acinetobacter baumannii 940 after 24 hrs by time-kill assay. Format: functional, organism-based.
Data set [2] concerns Acinetobacter baumannii. Kind of data set: Antimicrobial activity against Acinetobacter baumannii 940. The format is functional.
Data set [3] can be described thus: Ratio of AUC to MIC for Acinetobacter baumannii 1327 in pharmacokinetic-pharmacodynamic New Zealand rabbit meningitis model at 30 mg/kg, im. Format: functional. The following applies: route intramuscular.
A short description of data set [4]: T>MIC in Acinetobacter baumannii infected C57BL/6 mouse pneumonia model at 60 mg/kg, im. Format: functional. To be noted: route intramuscular.
Data set [5] can be described thus: Cmax in C57BL/6 mouse pneumonia model at 60 mg/kg, im. The following applies: in vivo. Also on record: dose 60 mg/kg, route intramuscular. The format is ADME, organism-based.
Data set [6] can be described thus: Half life in C57BL/6 mouse pneumonia model at 60 mg/kg, im. Also on record: dose 60 mg/kg, route intramuscular. The following applies: in vivo. Format: ADME, organism-based.
Data set [7] in a line: AUC in C57BL/6 mouse pneumonia model at 60 mg/kg, im. Format: ADME, organism-based. To be noted: in vivo. Also on record: dose 60 mg/kg, route intramuscular.
In data set [8] the test system is Acinetobacter baumannii. Kind of data set: Antibacterial activity against Acinetobacter baumannii infected in C57BL/6 mouse model assessed as survival rate at total dose of 240 mg/kg/day, im administered as four divided doses measured after 72 hrs post last dose relative to control. The format is functional. To be noted: route intramuscular.
Data set [9] has as its system Acinetobacter baumannii. Kind of data set: Antimicrobial activity against Acinetobacter baumannii 506 after 24 hrs by time-kill assay. Format: functional, organism-based.
Data set [10] deals with Acinetobacter baumannii. Nature of the data set: Antimicrobial activity against Acinetobacter baumannii infected in C57BL/6 mouse model assessed as reduction in bacterial count per gram of lung at total dose of 240 mg/kg/day, im administered as four divided doses after 72 hrs (RVb = 10.6+/-0.27). The format is functional, organism-based.
Data set [11] in a line: Cmax in New Zealand rabbit meningitis model at 30 mg/kg, im. To be noted: in vivo. Also on record: dose 30 mg/kg, route intramuscular. The format is ADME, organism-based, Oryctolagus cuniculus.
A short description of data set [12]: T>MIC in Acinetobacter baumannii infected New Zealand rabbit meningitis model at 30 mg/kg, im. To be noted: route intramuscular. The format is functional.
In data set [13] the test system is Acinetobacter baumannii. Nature of the data set: Antimicrobial activity against Acinetobacter baumannii 1327 after 24 hrs by time-kill assay. The format is functional, organism-based.
The test system of data set [14] is Acinetobacter baumannii. Nature of the data set: Antimicrobial activity against Acinetobacter baumannii 1327. Format: functional.
Data set [15] relates to Acinetobacter baumannii. Kind of data set: Antimicrobial activity against Acinetobacter baumannii 1417 after 24 hrs by time-kill assay. The format is functional, organism-based.
Data set [16] in a line: Ratio of Cmax to MIC for Acinetobacter baumannii 1327 in pharmacokinetic-pharmacodynamic New Zealand rabbit meningitis model at 30 mg/kg, im. The format is functional. The following applies: route intramuscular.
The nature of data set [17]: Half life in New Zealand rabbit meningitis model at 30 mg/kg, im. Format: ADME, organism-based, Oryctolagus cuniculus. Also on record: dose 30 mg/kg, route intramuscular. To be noted: in vivo.
Data set [18] can be described thus: Ratio of Cmax to MIC for Acinetobacter baumannii 1327 in pharmacokinetic-pharmacodynamic C57BL/6 mouse pneumonia model at 60 mg/kg, im. To be noted: route intramuscular. The format is functional.
Data set [19] is described as follows: AUC in New Zealand rabbit meningitis model at 30 mg/kg, im. Format: ADME, organism-based, Oryctolagus cuniculus. Also on record: dose 30 mg/kg, route intramuscular. The following applies: in vivo.
Data set [20] deals with Acinetobacter baumannii. Kind of data set: Antimicrobial activity against Acinetobacter baumannii 506. The format is functional.
Data set [21] in a line: Ratio of AUC to MIC for Acinetobacter baumannii 1327 in pharmacokinetic-pharmacodynamic C57BL/6 mouse pneumonia model at 60 mg/kg, im. To be noted: route intramuscular. The format is functional.
Data set [22] relates to Acinetobacter baumannii. Kind of data set: Antimicrobial activity against Acinetobacter baumannii 1417. Format: functional.
In data set [23] the test system is Acinetobacter baumannii. Nature of the data set: Antimicrobial activity against Acinetobacter baumannii infected in C57BL/6 mouse model assessed as reduction in bacterial count in blood at total dose of 240 mg/kg/day, im administered as four divided doses after 72 hrs. The format is functional. The arrangement: scale not given: the % may be the effect or the level left. To be noted: route intramuscular.

For data set [24], the system named is Mus musculus. Kind of data set: AUC in C57BL/6 mouse pneumonia model at 20 mg/kg, im. Also on record: dose 20 mg/kg, route intramuscular. Format: ADME, organism-based. To be noted: in vivo.
The subject of data set [25] is Mus musculus. Nature of the data set: Half life in C57BL/6 mouse pneumonia model at 20 mg/kg, im. To be noted: in vivo. Also on record: dose 20 mg/kg, route intramuscular. The format is ADME, organism-based.
The species entered for data set [26] is Homo sapiens. Kind of data set: AUC in human. To be noted: in vivo. Format: ADME, organism-based, Plasma.
For data set [27], the system named is Oryctolagus cuniculus. Nature of the data set: Cmax in New Zealand rabbit meningitis model at 12 mg/kg, im. Also on record: dose 12 mg/kg, route intramuscular. Format: ADME, organism-based. The following applies: in vivo.
Data set [28] relates to Oryctolagus cuniculus. Kind of data set: Half life in New Zealand rabbit meningitis model at 12 mg/kg, im. Format: ADME, organism-based. Also on record: dose 12 mg/kg, route intramuscular. The following applies: in vivo.
Data set [29] has as its system Oryctolagus cuniculus. Kind of data set: AUC in New Zealand rabbit meningitis model at 12 mg/kg, im. The format is ADME, organism-based. Also on record: dose 12 mg/kg, route intramuscular. The following applies: in vivo.
In data set [30] the test system is Mus musculus. Nature of the data set: Cmax in C57BL/6 mouse pneumonia model at 20 mg/kg, im. The format is ADME, organism-based. The arrangement: dose 20 mg/kg, route intramuscular. To be noted: in vivo.
The nature of data set [31]: Ratio of Cmax to MIC for Acinetobacter baumannii 1327 in pharmacokinetic-pharmacodynamic C57BL/6 mouse pneumonia model at 20 mg/kg, im. The format is functional, organism-based. Also on record: dose 20 mg/kg.
The test system of data set [32] is Acinetobacter baumannii. Kind of data set: Antibacterial activity against Acinetobacter baumannii infected in C57BL/6 mouse model assessed as survival rate at total dose of 60 mg/kg/day, im administered as four divided doses measured after 72 hrs post last dose relative to control. The format is functional, organism-based.
The nature of data set [33]: Ratio of Cmax to MIC for Acinetobacter baumannii 1327 in pharmacokinetic-pharmacodynamic New Zealand rabbit meningitis model at 12 mg/kg, im. The format is functional, organism-based. The arrangement: dose 12 mg/kg.
The test system of data set [34] is Acinetobacter baumannii. Nature of the data set: Antibacterial activity against Acinetobacter baumannii 1327 infected in New Zealand rabbit meningitis model assessed as reduction in bacterial count in CSF at 25 mg/kg, im measured after 6 hrs of last dose (RVb = 5.5). The format is functional, organism-based. The arrangement: dose 25 mg/kg.
Data set [35] deals with Acinetobacter baumannii. Kind of data set: Antimicrobial activity against Acinetobacter baumannii infected in C57BL/6 mouse model assessed as reduction in bacterial count per gram of lung at total dose of 60 mg/kg/day, im administered as four divided doses after 72 hrs (RVb = 10.6+/-0.27). The format is functional, organism-based.
In data set [36] the test system is Acinetobacter baumannii. Nature of the data set: Antimicrobial activity against Acinetobacter baumannii infected in C57BL/6 mouse model assessed as reduction in bacterial count in blood at total dose of 60 mg/kg/day, im administered as four divided doses after 72 hrs. Format: functional, organism-based. Also on record: scale not given: the % may be the effect or the level left.

Data set [37] in a line: T>MIC in Acinetobacter baumannii infected C57BL/6 mouse pneumonia model at 20 mg/kg, im. The format is functional, organism-based. The arrangement: dose 20 mg/kg.
A short description of data set [38]: Ratio of AUC to MIC for Acinetobacter baumannii 1327 in pharmacokinetic-pharmacodynamic C57BL/6 mouse pneumonia model at 12 mg/kg, im. The format is functional, organism-based. The arrangement: dose 12 mg/kg.
Data set [39] is described as follows: T>MIC in Acinetobacter baumannii infected New Zealand rabbit meningitis model at 12 mg/kg, im. Format: functional, organism-based. Also on record: dose 12 mg/kg.
Data set [40] concerns Acinetobacter baumannii. Nature of the data set: Antibacterial activity against Acinetobacter baumannii 1327 infected in New Zealand rabbit meningitis model assessed as reduction in bacterial count in CSF at 25 mg/kg, im measured after 4 hrs of last dose (RVb = 5.2). The format is functional, organism-based. The arrangement: dose 25 mg/kg.
The nature of data set [41]: Ratio of AUC to MIC for Acinetobacter baumannii 1327 in pharmacokinetic-pharmacodynamic New Zealand rabbit meningitis model at 12 mg/kg, im. Format: functional, organism-based. Also on record: dose 12 mg/kg.
In data set [42] the test system is Oryctolagus cuniculus. Nature of the data set: Antiinflammatory activity in Acinetobacter baumannii 1327-infected New Zealand rabbit meningitis model assessed as in WBC count at 12 mg/kg, im after 6 hrs (RVb = 1 cells/ul). Also on record: dose 12 mg/kg. Format: functional, organism-based.
Data set [43] concerns Oryctolagus cuniculus. Kind of data set: Antiinflammatory activity in Acinetobacter baumannii 1327-infected New Zealand rabbit meningitis model assessed as brain edema at 12 mg/kg, im. The arrangement: dose 12 mg/kg. Format: functional, organism-based.
Data set [44] deals with Acinetobacter baumannii. Nature of the data set: Antimicrobial activity against Acinetobacter baumannii. Format: functional, organism-based.
Data set [45] concerns Acinetobacter baumannii. Nature of the data set: Antibacterial activity against Acinetobacter baumannii 1327 infected in New Zealand rabbit meningitis model assessed as reduction in bacterial count in CSF at 25 mg/kg, im measured after 2 hrs of last dose (RVb = […]). The format is functional, organism-based. The arrangement: dose 25 mg/kg.

Values after ≈ are worked out from the molar mass of the structure shown. Active and inactive are the calls of the source.

As for `CC1(C)[C@H](C(=O)O)N2C(=O)C[C@H]2S1(=O)=O` [SULBACTAM], the outcome in data set [1], in data set [9], in data set [10], in data set [13] and in data set [15] was Active. The MBC in [2], in [14], in data set [20] and in data set [22] was 32 µg/mL (≈ 137 µM) each time. Moreover, the MIC in data set [2], in [14], in data set [20] and in data set [22] was 32 µg/mL (≈ 137 µM) throughout. For the same molecule, the Ratio in data set [3] worked out at 1.78; in data set [16], 2.35; in data set [18], 2.8; in data set [21], 2.73. For the same molecule, the “T>MIC” value in [4] is 1.29 h; in data set [12], 0.84 h. In addition, the Cmax worked out at 89.5 µg/mL in data set [5] and 75.3 µg/mL in [11]. For the same molecule, the half-life was 21 min in data set [6] and 32.4 min in data set [17]. Besides, the AUC in data set [7] came out at 87500 ng·h/mL; in data set [19], 57100 ng·h/mL. For the same molecule, the survival at 240 mg/kg/day in data set [8] stood at 40%. Also, in data set [23], the Activity is 33.3%.

Take COLISTIN [listing 1 of 2 here]: the AUC in data set [24] is 26420 ng·h/mL; in data set [26] it was 23430 ng·h/mL; in data set [29], 41720 ng·h/mL. Besides, the t1/2 in [25] was determined as 32.4 min; in [28], 185 min. The Cmax in data set [27] turned out to be 9 µg/mL; in data set [30], 27.39 µg/mL.

Turning to COLISTIN [listing 2 of 2 here], the outcome in [1], in data set [35], in data set [9], in data set [13] and in data set [15] was Active. Moreover, the minimum bactericidal concentration (MBC) in [2] stood at 8 µg/mL; in data set [14] it was 2 µg/mL; in data set [20] it was 2 µg/mL; in data set [22], 1 µg/mL. The MIC in data set [2], in data set [14], in data set [20], in [22] and in [44] was 0.5 µg/mL each time. The Ratio in data set [31] is 54.8; in data set [33], 18; in [38] it was 52.8; in data set [41], 83.4. The Survival in data set [32] came to 40%. Further, the Activity turned out to be 4.3 log10CFU/ml in data set [34]; 73.3% in [36]; 4.7 log10CFU/ml in data set [40]; 4% in data set [42]; 383 µL⁻¹ in data set [43]; 5.2 log10CFU/ml in [45]. Besides, the T>MIC in data set [37] amounted to 3.72 h; in data set [39], 11.4 h.

Usually MBC stands for the smallest concentration meeting the test's criterion for killing. One may read the MIC as the least concentration at which growth counts as inhibited. One may read the Cmax as the maximum level reached in the sampled fluid or tissue. One may read the half-life as the time in which the quantity being followed falls by half. One may read the AUC as the area under the concentration-time curve, a measure of exposure.

The record behind these values is ChEMBL document CHEMBL1240392 (Antimicrob Agents Chemother, 2010).
